Publication PMC4049246 (The Journal of Organic Chemistry, 2014)

Legend:
[1] = Octanol/water partition coefficient; format: physicochemical
ERBB2 = ERBB2 (Homo sapiens, UniProt P04626); assay: Inhibition of NRGβ1-induced ERBB2 tyrosine phosphorylation in MCF7 cells; format: cell-based; details: for inhibition of NRGβ1-induced phosphorylation of ERBB2: MCF7 cells
[2] = UV-vis absorption, fluorescence emission and lifetime in chloroform; details: for Δν / ε / ϕem: CHCl3; for ϕem: ±10%, perylene in cyclohexane as reference; for τ1: fluorescence lifetime component 1; for τ2: fluorescence lifetime component 2; for f1: fraction of lifetime component 1; for f2: fraction of lifetime component 2
[3] = physiologically relevant concentrations; cited from earlier work

Chain of ERBB2 (P04626 23-1255): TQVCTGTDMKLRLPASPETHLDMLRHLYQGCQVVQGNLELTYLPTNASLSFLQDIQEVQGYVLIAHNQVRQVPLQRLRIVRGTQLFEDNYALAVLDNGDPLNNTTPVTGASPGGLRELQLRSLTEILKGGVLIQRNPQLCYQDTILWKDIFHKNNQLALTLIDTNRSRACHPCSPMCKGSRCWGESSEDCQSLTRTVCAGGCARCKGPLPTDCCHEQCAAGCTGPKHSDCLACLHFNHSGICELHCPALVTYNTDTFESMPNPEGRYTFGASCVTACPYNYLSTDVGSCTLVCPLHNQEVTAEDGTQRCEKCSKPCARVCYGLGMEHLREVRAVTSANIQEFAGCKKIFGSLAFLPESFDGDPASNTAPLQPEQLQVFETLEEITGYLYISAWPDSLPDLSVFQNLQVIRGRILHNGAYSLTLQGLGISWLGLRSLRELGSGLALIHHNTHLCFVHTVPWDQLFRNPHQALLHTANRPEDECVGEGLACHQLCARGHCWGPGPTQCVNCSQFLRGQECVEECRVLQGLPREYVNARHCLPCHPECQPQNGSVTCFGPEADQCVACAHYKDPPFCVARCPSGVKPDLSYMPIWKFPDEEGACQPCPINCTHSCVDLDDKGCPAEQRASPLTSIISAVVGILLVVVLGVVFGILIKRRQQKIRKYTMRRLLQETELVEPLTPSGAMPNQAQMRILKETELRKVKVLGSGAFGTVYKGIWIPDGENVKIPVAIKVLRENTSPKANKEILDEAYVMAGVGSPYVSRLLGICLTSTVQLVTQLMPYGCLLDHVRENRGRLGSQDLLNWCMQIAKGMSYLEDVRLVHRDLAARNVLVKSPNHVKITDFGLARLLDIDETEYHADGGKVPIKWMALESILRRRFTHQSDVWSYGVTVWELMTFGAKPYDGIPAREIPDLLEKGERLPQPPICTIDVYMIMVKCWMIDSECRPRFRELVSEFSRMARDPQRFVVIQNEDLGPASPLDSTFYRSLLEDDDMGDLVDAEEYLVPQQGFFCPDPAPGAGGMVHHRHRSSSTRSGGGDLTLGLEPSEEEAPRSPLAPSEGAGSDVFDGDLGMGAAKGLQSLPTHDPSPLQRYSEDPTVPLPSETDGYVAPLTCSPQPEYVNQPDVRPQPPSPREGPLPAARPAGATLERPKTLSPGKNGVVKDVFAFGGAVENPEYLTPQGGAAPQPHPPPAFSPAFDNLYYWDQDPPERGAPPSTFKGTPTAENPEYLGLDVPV

Row | log Poctanol/water [1] | Ki (ERBB2) [µM] | inhibition of NRGβ1-induced phosphorylation of ERBB2 (ERBB2; 100 nM probe) | inhibition of NRGβ1-induced phosphorylation of ERBB2 (ERBB2; 10 μM probe) | Δν [2] [cm^–1] | ε [2] | ϕem [2] | τ1 [2] [ns] | τ2 [2] [ns] | f1 [2] | f2 [2] | SMILES | aggregation [3]
1 | 1.50 | 10 | little to no inhibitory action | showed inhibition |  |  |  |  |  |  |  | CN(C)c1ccc(-c2ccc3ncnc(Nc4ccccc4)c3c2)cc1 [1a, 6-(4-(Dimethylamino)phenyl)-N-phenylquinazolin-4-amine] | 
2 |  |  |  |  | 9130 | 14 300 M^–1 cm^–1 | 0.02 | 1.39 | 6.76 | 0.70 | 0.30 | COc1ccc(-c2ccc3ncnc(Nc4ccccc4)c3c2)cc1 [1b, 6-(4-Methoxyphenyl)-N-phenylquinazolin-4-amine] | 
3 |  |  |  |  | 6480 | 19 700 M^–1 cm^–1 | 0.006 | 0.11 | 1.56 | 0.74 | 0.26 | O=[N+]([O-])c1ccc(-c2ccc3ncnc(Nc4ccccc4)c3c2)cc1 [1e, 6-(4-Nitrophenyl)-N-phenylquinazolin-4-amine] | 
4 |  |  | little to no inhibitory action | showed inhibition |  |  |  |  |  |  |  | CN(C)c1ccc(/C=C/c2ccc3ncnc(Nc4ccccc4)c3c2)cc1 [2a, (E)-6-(4-Dimethylaminostyryl)-N-phenylquinazolin-4-amine] | 
5 |  |  |  |  | 7350 | 21 900 M^–1 cm^–1 | 0.02 | 0.05 | 1.75 | 0.11 | 0.89 | C(=C\c1ccc2ncnc(Nc3ccccc3)c2c1)/c1ccccc1 [2c, (E)-N-Phenyl-6-styrylquinazolin-4-amine] | 
6 |  |  | little to no inhibitory action | showed inhibition |  |  |  |  |  |  |  | O=[N+]([O-])c1ccc(/C=C/C=C/c2ccc3ncnc(Nc4ccccc4)c3c2)cc1 [3e, 6-((1E,3E)-4-(4-Nitrophenyl)buta-1,3-dienyl)-N-phenylquinazolin-4-amine] | 
7 |  |  |  |  |  |  |  |  |  |  |  | CS(=O)(=O)CCNCc1ccc(-c2ccc3ncnc(Nc4ccc(OCc5cccc(F)c5)c(Cl)c4)c3c2)o1 [lapatinib] | significant aggregation
